Reference: ChEMBL document CHEMBL1153618, “Discovery of potential new InhA direct inhibitors based on pharmacophore and 3D-QSAR analysis followed by in silico screening” (Eur J Med Chem, 2009)

Biological target: T1, Enoyl-[acyl-carrier-protein] reductase [NADH] (Mycobacterium tuberculosis, UniProt P9WGR1)
T1 sequence (P9WGR1 whole entry): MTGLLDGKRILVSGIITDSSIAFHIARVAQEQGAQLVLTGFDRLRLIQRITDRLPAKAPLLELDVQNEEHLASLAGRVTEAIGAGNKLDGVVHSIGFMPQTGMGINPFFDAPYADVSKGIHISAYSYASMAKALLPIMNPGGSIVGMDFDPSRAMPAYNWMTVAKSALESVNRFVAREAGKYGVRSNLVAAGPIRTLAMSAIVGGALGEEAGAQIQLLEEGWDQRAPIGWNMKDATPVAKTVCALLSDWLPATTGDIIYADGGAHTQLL
Test: Inhibition of Mycobacterium tuberculosis InhA

Row | Compound | IC50 [µM]
1 | Cc1ccc(NC(=O)c2sc3ccccc3c2Cl)cc1[N+](=O)[O-] | 2.14
2 | O=[N+]([O-])c1cc(/N=C/c2ccc(Cl)cc2Cl)ccc1Cl | 4.68
3 | COc1ccc(C(=O)Nc2cc(Cl)ccc2Cl)cc1[N+](=O)[O-] | 13.8
4 | Cc1ccc(OC(=O)c2ccccc2[N+](=O)[O-])c(Br)c1 | 9.55
5 | O=C(Nc1cc(Cl)c(Cl)cc1Cl)c1ccccc1[N+](=O)[O-] | 12
6 | CCN(CC)c1ccc(/C=C2/SC(N3CCCCC3)=NC2=O)cc1 | 6.17
7 | COc1ccc(C(=O)Nc2cc(Cl)cc(Cl)c2)cc1[N+](=O)[O-] | 7.08
8 | COc1ccc(/C=C2/SC(N3CCCCC3)=NC2=O)cc1OC | 11.5
9 | CCN(CC)c1ccc(NC(=O)c2ccccc2[N+](=O)[O-])cc1 | 4.37
10 | COc1ccc(/C=C2/SC(N3CCCC3)=NC2=O)cc1OC | 7.24
11 | COc1cc(NC(=O)c2ccc(C)cc2[N+](=O)[O-])cc(OC)c1 | 1.35
12 | O=C(Nc1ccc(Cl)cc1Cl)c1ccccc1[N+](=O)[O-] | 20
13 | O=C(Nc1cc(Cl)cc(Cl)c1)c1ccccc1[N+](=O)[O-] | 6.17
14 | O=C(Nc1cc(Cl)ccc1Cl)c1ccc(Cl)c([N+](=O)[O-])c1 | 20
15 | COc1ccc(Cl)cc1NC(=O)c1ccc(Cl)c([N+](=O)[O-])c1 | 4.07
16 | CCN(CC)c1ccc(/C=C2/N=C(c3ccccc3)OC2=O)cc1 | 3.31
17 | COc1ccc(/C=C2\SC(N3CCCCCC3)NC2=O)cc1OC (stereo not given) | 11
18 | Cc1ccc(C(=O)Nc2ccc(Cl)cc2Cl)cc1[N+](=O)[O-] | 8.71
19 | Cc1cc(Cl)ccc1OCC(=O)Nc1cccc([N+](=O)[O-])c1C | 3.47
20 | COc1cc(Cl)cc(/C=C2/SC(c3ccccc3)=NC2=O)c1O | 10.5
21 | Cc1ccc(NC(=O)c2ccccc2[N+](=O)[O-])c(C)c1 | 10.5
22 | CCOC(=O)C1=C(C)N/C(=C/c2cc(OC)ccc2OC)C1=O | 3.63
23 | CCOc1ccc(/C=C2/SC(c3ccccc3)=NC2=O)cc1C | 10
24 | O=C1N=C(Nc2cc(Cl)cc(Cl)c2)S/C1=C/c1ccco1 | 17.8
25 | COc1ccc(/C=C2/SC(N3CCC(C)CC3)=NC2=O)cc1OC | 10.7
26 | COc1ccc(OC)c(/C=N/NC2=CS(=O)(=O)c3ccccc32)c1 | 5.13
27 | COC(=O)c1c(NC(=O)c2ccccc2[N+](=O)[O-])sc2c1CCC2 | 1.82
28 | COc1ccc(Cl)cc1NC(=O)c1ccc(OC)c([N+](=O)[O-])c1 | 5.01
29 | O=C(Nc1ccc(Cl)c(Cl)c1)c1ccc(Cl)c([N+](=O)[O-])c1 | 52.5
30 | COc1cc(Cl)ccc1NC(=O)c1ccc(C)c([N+](=O)[O-])c1 | 5.01
